# Measurements published in US20240409585A1, “MACROCYCLIC IMMUNOMODULATORS” (priority 2021, published 2024).
# Bridge positions count the residues as written; N and C are the ends. Square brackets hold non-standard residues; d marks the D form. Peptide text beside a SMILES is read from it. * marks the point of attachment. ξ: configuration not given here. Tyr(3-NO2) = N[C@@H](Cc1ccc(O)c([N+](=O)[O-])c1)C(=O)O; Phe(4-COOH) = N[C@@H](Cc1ccc(C(=O)O)cc1)C(=O)O; Bip = N[C@@H](Cc1ccc(-c2ccccc2)cc1)C(=O)O; Phe(3-CN) = N#Cc1cccc(C[C@H](N)C(=O)O)c1; Phe(3-Me) = Cc1cccc(C[C@H](N)C(=O)O)c1; 3Pal = N[C@@H](Cc1cccnc1)C(=O)O; Cha = N[C@@H](CC1CCCCC1)C(=O)O; Cit = NC(=O)NCCC[C@H](N)C(=O)O; Ile(3ξ) = CCC(C)[C@H](N)C(=O)O; Thr(3ξ) = CC(O)[C@H](N)C(=O)O; Carboxymethyl = O=C(O)C*; NMeA = CN[C@@H](C)C(=O)O; Orn = NCCC[C@H](N)C(=O)O; Dab = NCC[C@H](N)C(=O)O
# Target: T1, PE-labeled human PD-L1-Ig binding to Jurkat cell line over-expressing human PD-1 (Jurkat-PD-1) (Homo sapiens, UniProt Q15116)
# T1 construct: expressed in transfected cells; host or cells: Jurkat
# T1 sequence (Q15116 25-288): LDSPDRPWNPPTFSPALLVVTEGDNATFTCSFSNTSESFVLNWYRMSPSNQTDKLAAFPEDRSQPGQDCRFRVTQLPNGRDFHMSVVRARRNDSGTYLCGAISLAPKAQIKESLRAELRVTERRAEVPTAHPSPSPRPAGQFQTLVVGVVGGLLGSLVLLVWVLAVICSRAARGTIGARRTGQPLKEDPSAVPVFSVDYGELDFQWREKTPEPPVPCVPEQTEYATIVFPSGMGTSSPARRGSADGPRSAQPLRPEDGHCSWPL
# Assay: Jurkat-PD-1 Cell Binding High-Content Screening Assay (CBA): Method 1
# Settings: Jurkat-hPD-1 cells, PE-labeled PD-L1-Ig 20 nM final; read-out: Jurkat HPDL1 PD1 IC50 (uM) (Method 1)
row,Compound,IC50
1,CC(C)C[C@@H]1NC(=O)[C@H](CCN)NC(=O)[C@@H](CC(C)C)NC(=O)[C@H](C)N(C)C(=O)[C@H](Cc2cnc[nH]2)NC(=O)[C@H](Cc2ccc(-c3ccccc3)cc2)NC(=O)[C@H](C(C)C)NC(=O)[C@H](Cc2c[nH]c3ccccc23)NC(=O)[C@H](CC(=O)O)NC(=O)[C@H](Cc2cccc(C#N)c2)NC(=O)[C@H](CC(N)=O)NC(=O)CSC[C@@H](C(=O)N[C@@H](C)C(N)=O)NC(=O)[C@H]([C@@H](C)O)NC(=O)[C@H](C(C)C)NC1=O [Compound 1375] ({CH2CO}-N[Phe(3-CN)]DWV[Bip]H[NMeA][dL][Dab]LVTCA-NH2; thioether N-14),0.05 µM
2,CC(C)C[C@@H]1NC(=O)[C@H](Cc2c[nH]c3ccccc23)NC(=O)[C@H](CC(=O)O)NC(=O)[C@H](Cc2ccc(O)cc2)NC(=O)[C@H](Cc2ccccc2)NC(=O)CSC[C@@H](C(=O)N[C@@H](C)C(N)=O)NC(=O)[C@H](CO)NC(=O)[C@H](C(C)C)NC(=O)[C@H](CC(C)C)NC(=O)[C@H](CC(N)=O)NC(=O)[C@@H](CCCNC(=N)N)NC(=O)[C@H](C)N(C)C(=O)[C@H](C(C)C)NC(=O)[C@H](Cc2ccc(-c3ccccc3)cc2)NC1=O [Compound 1804] ({CH2CO}-FYDWL[Bip]V[NMeA][dR]NLVSCA-NH2; thioether N-14),0.21 µM
3,CCC(C)[C@@H]1NC(=O)[C@H](Cc2ccc(-c3ccccc3)cc2)NC(=O)[C@H](Cc2cccc(C)c2)NC(=O)[C@H](Cc2c[nH]c3ccccc23)NC(=O)[C@H](CC(=O)O)NC(=O)[C@H](Cc2ccc(OCC(=O)O)cc2)NC(=O)[C@H](C(C)O)NC(=O)CSC[C@@H](C(=O)N[C@@H](CC(N)=O)C(=O)O)NC(=O)[C@H](CO)NC(=O)[C@H](C(C)C)NC(=O)[C@H](CC(C)C)NC(=O)[C@H](CCN)NC(=O)[C@@H](CC(C)C)NC(=O)[C@H](C)N(C)C1=O (stereo partly drawn) [Compound 2222] ({CH2CO}-[Thr(3ξ)]Y(Carboxymethyl)DW[Phe(3-Me)][Bip][Ile(3ξ)][NMeA][dL][Dab]LVSCN-OH; thioether N-14),0.29 µM
4,CC(C)C[C@@H]1NC(=O)[C@H](Cc2c[nH]c3ccccc23)NC(=O)[C@H](CC(=O)O)NC(=O)[C@H](Cc2ccc(O)cc2)NC(=O)[C@H](Cc2ccccc2)NC(=O)CSC[C@@H](C(=O)N[C@@H](C)C(N)=O)NC(=O)[C@H](CO)NC(=O)[C@H](CCN)NC(=O)[C@H](CC(C)C)NC(=O)[C@H](CC(N)=O)NC(=O)[C@@H](C)NC(=O)[C@H](C)N(C)C(=O)[C@H](C(C)C)NC(=O)[C@H](Cc2ccc(-c3ccccc3)cc2)NC1=O [Compound 1531] ({CH2CO}-FYDWL[Bip]V[NMeA][dA]NL[Dab]SCA-NH2; thioether N-14),0.11 µM
5,CC(C)C[C@@H]1NC(=O)[C@H](CCCN)NC(=O)[C@@H](CC(C)C)NC(=O)[C@H](C)N(C)C(=O)[C@H](CCCNC(=N)N)NC(=O)[C@H](Cc2ccc(-c3ccccc3)cc2)NC(=O)[C@H](C(C)C)NC(=O)[C@H](Cc2c[nH]c3ccccc23)NC(=O)[C@H](CC(=O)O)NC(=O)[C@H](Cc2ccc(O)c([N+](=O)[O-])c2)NC(=O)[C@H](CC(N)=O)NC(=O)CSC[C@@H](C(=O)N[C@@H](C)C(N)=O)NC(=O)[C@H]([C@@H](C)O)NC(=O)[C@H](C(C)C)NC1=O [Compound 1154] ({CH2CO}-N[Tyr(3-NO2)]DWV[Bip]R[NMeA][dL][Orn]LVTCA-NH2; thioether N-14),0.03 µM
6,CC(C)C[C@@H]1NC(=O)[C@H](CCCNC(=N)N)NC(=O)[C@@H](CC(C)C)NC(=O)[C@H](C)N(C)C(=O)[C@H](CCCNC(=N)N)NC(=O)[C@H](Cc2ccc(-c3ccccc3)cc2)NC(=O)[C@H](C(C)C)NC(=O)[C@H](Cc2c[nH]c3ccccc23)NC(=O)[C@H](CC(=O)O)NC(=O)[C@H](Cc2ccc(O)cc2)NC(=O)[C@H](Cc2cccnc2)NC(=O)CSC[C@@H](C(=O)N[C@@H](C)C(N)=O)NC(=O)[C@H](CO)NC(=O)[C@H](C(C)C)NC1=O [Compound 1036] ({CH2CO}-[3Pal]YDWV[Bip]R[NMeA][dL]RLVSCA-NH2; thioether N-14),0.05 µM
7,CC(=O)NCCCC[C@@H]1NC(=O)[C@H](Cc2ccc(-c3ccccc3)cc2)NC(=O)[C@H](Cc2ccc(O)cc2)NC(=O)[C@H](Cc2c[nH]c3ccccc23)NC(=O)[C@H](CC(=O)O)NC(=O)[C@H](Cc2ccc(OCC(=O)O)cc2)NC(=O)[C@H](C(C)O)NC(=O)CSC[C@@H](C(N)=O)NC(=O)[C@H](C(C)O)NC(=O)[C@H](C(C)C)NC(=O)[C@H](CC2CCCCC2)NC(=O)[C@H](CCN)NC(=O)[C@@H](CC(C)C)NC(=O)[C@H](C)N(C)C1=O (stereo partly drawn) [Compound 2254] ({CH2CO}-[Thr(3ξ)]Y(Carboxymethyl)DWY[Bip]K(Ac)[NMeA][dL][Dab][Cha]V[Thr(3ξ)]C-NH2; thioether N-14),0.16 µM
8,CC(C)C[C@@H]1NC(=O)[C@H](CCCN)NC(=O)[C@@H](CC(C)C)NC(=O)[C@H](C)N(C)C(=O)[C@H](CCC(=O)O)NC(=O)[C@H](Cc2ccc(-c3ccccc3)cc2)NC(=O)[C@H](C(C)C)NC(=O)[C@H](Cc2c[nH]c3ccccc23)NC(=O)[C@H](CC(=O)O)NC(=O)[C@H](Cc2ccc(O)cc2)NC(=O)[C@H](CC(N)=O)NC(=O)CSC[C@@H](C(=O)N[C@@H](C)C(N)=O)NC(=O)[C@H](CO)NC(=O)[C@H](C(C)C)NC1=O [Compound 1240] ({CH2CO}-NYDWV[Bip]E[NMeA][dL][Orn]LVSCA-NH2; thioether N-14),0.04 µM
9,Cc1cccc(C[C@@H]2NC(=O)[C@H](CC(=O)O)NC(=O)[C@H](Cc3ccc(OCC(=O)O)cc3)NC(=O)[C@H](Cc3ccc(OCC(=O)O)cc3)NC(=O)CSC[C@@H](C(=O)N[C@@H](C)C(N)=O)NC(=O)[C@H](CO)NC(=O)[C@H](C(C)C)NC(=O)[C@H](CC(C)C)NC(=O)[C@H](CC(N)=O)NC(=O)[C@@H](C)NC(=O)[C@H](C)N(C)C(=O)[C@H](C(C)C)NC(=O)[C@H](Cc3ccc(-c4ccccc4)cc3)NC(=O)[C@H](CC(C)C)NC2=O)c1 [Compound 1580] ({CH2CO}-Y(Carboxymethyl)Y(Carboxymethyl)D[Phe(3-Me)]L[Bip]V[NMeA][dA]NLVSCA-NH2; thioether N-14),0.01 µM
10,CC(C)C[C@@H]1NC(=O)[C@H](CCCNC(=N)N)NC(=O)[C@@H](CC(C)C)NC(=O)[C@H](C)N(C)C(=O)[C@H](CCC(=O)O)NC(=O)[C@H](Cc2ccc(-c3ccccc3)cc2)NC(=O)[C@H](C(C)C)NC(=O)[C@H](Cc2c[nH]c3ccccc23)NC(=O)[C@H](CC(=O)O)NC(=O)[C@H](Cc2ccc(O)cc2)NC(=O)[C@H](Cc2ccccc2)NC(=O)CSC[C@@H](C(=O)N[C@@H](CCC(=O)O)C(N)=O)NC(=O)[C@H]([C@@H](C)O)NC(=O)[C@H](C(C)C)NC1=O [Compound 1135] ({CH2CO}-FYDWV[Bip]E[NMeA][dL]RLVTCE-NH2; thioether N-14),0.14 µM
11,CC(C)C[C@@H]1NC(=O)[C@H](CCCNC(=N)N)NC(=O)[C@@H](CC(C)C)NC(=O)[C@H](C)N(C)C(=O)[C@H](CCCNC(N)=O)NC(=O)[C@H](Cc2ccc(-c3ccccc3)cc2)NC(=O)[C@H](C(C)C)NC(=O)[C@H](Cc2c[nH]c3ccccc23)NC(=O)[C@H](CC(=O)O)NC(=O)[C@H](Cc2ccc(O)cc2)NC(=O)[C@H](CC(N)=O)NC(=O)CSC[C@@H](C(=O)N[C@@H](C)C(N)=O)NC(=O)[C@H](CO)NC(=O)[C@H](C(C)C)NC1=O [Compound 1227] ({CH2CO}-NYDWV[Bip][Cit][NMeA][dL]RLVSCA-NH2; thioether N-14),0.04 µM
12,CC[C@H](C)[C@@H]1NC(=O)[C@H](Cc2ccc(-c3ccccc3)cc2)NC(=O)[C@H](CC(C)C)NC(=O)[C@H](Cc2c[nH]c3ccccc23)NC(=O)[C@H](CC(=O)O)NC(=O)[C@H](Cc2ccc(C(=O)O)cc2)NC(=O)[C@H](Cc2ccc(OCC(=O)O)cc2)NC(=O)CSC[C@@H](C(N)=O)NC(=O)[C@H](CO)NC(=O)[C@H](C(C)C)NC(=O)[C@H](CC2CCCCC2)NC(=O)[C@H](CCN)NC(=O)[C@@H](CC(C)C)NC(=O)[C@H](C)N(C)C1=O [Compound 1635] ({CH2CO}-Y(Carboxymethyl)[Phe(4-COOH)]DWL[Bip]I[NMeA][dL][Dab][Cha]VSC-NH2; thioether N-14),0.01 µM
13,CC(C)C[C@@H]1NC(=O)[C@H](Cc2c[nH]c3ccccc23)NC(=O)[C@H](CC(=O)O)NC(=O)[C@H](Cc2ccc(O)cc2)NC(=O)[C@H](Cc2ccccc2)NC(=O)CSC[C@@H](C(=O)N[C@@H](C)C(N)=O)NC(=O)[C@H](CO)NC(=O)[C@H](C(C)C)NC(=O)[C@H](CC(C)C)NC(=O)[C@H](CCCNC(=N)N)NC(=O)[C@@H](C)NC(=O)[C@H](C)N(C)C(=O)[C@H](CCCNC(=N)N)NC(=O)[C@H](Cc2ccc(-c3ccccc3)cc2)NC1=O [Compound 1782] ({CH2CO}-FYDWL[Bip]R[NMeA][dA]RLVSCA-NH2; thioether N-14),0.08 µM
14,Cc1cccc(C[C@@H]2NC(=O)[C@H](CC(=O)O)NC(=O)[C@H](Cc3ccc(O)cc3)NC(=O)[C@H](CC(N)=O)NC(=O)CSC[C@@H](C(N)=O)NC(=O)[C@H]([C@@H](C)O)NC(=O)[C@H](C(C)C)NC(=O)[C@H](CC(C)C)NC(=O)[C@H](CCN)NC(=O)[C@@H](CC(C)C)NC(=O)[C@H](C)N(C)C(=O)[C@H](CCCNC(N)=O)NC(=O)[C@H](Cc3ccc(-c4ccccc4)cc3)NC(=O)[C@H](C(C)C)NC2=O)c1 [Compound 1641] ({CH2CO}-NYD[Phe(3-Me)]V[Bip][Cit][NMeA][dL][Dab]LVTC-NH2; thioether N-14),0.14 µM
15,CC(C)C[C@@H]1NC(=O)[C@H](CCCN)NC(=O)[C@@H](CC(C)C)NC(=O)[C@H](C)N(C)C(=O)[C@H](CCCNC(=N)N)NC(=O)[C@H](Cc2ccc(-c3ccccc3)cc2)NC(=O)[C@H](C(C)C)NC(=O)[C@H](Cc2c[nH]c3ccccc23)NC(=O)[C@H](CC(=O)O)NC(=O)[C@H](Cc2ccc(C(=O)O)cc2)NC(=O)[C@H](CC(N)=O)NC(=O)CSC[C@@H](C(=O)N[C@@H](C)C(N)=O)NC(=O)[C@H]([C@@H](C)O)NC(=O)[C@H](C(C)C)NC1=O [Compound 1139] ({CH2CO}-N[Phe(4-COOH)]DWV[Bip]R[NMeA][dL][Orn]LVTCA-NH2; thioether N-14),0.06 µM
